Our source for the IC50 and Ratio values is patent US5541199A, “Chroman-2-ylmethylamino derivatives” (American Home Products Corporation, priority 1995, dated 1996).

Each structure is given as a SMILES string.

The test system of one experiment is α1. Kind of experiment: α1 IC50. The format is binding.
The target of experiment [1] is T1, D2 (Rattus norvegicus, UniProt P61169). As to the kind of experiment: Affinity for the dopamine autoreceptor: 3H-quinpirole (Quin.) binding, homogenized rat striatal brain tissue. More on the design: homogenized rat striatal brain tissue; from tissue; host or cells: rat striatal brain tissue, homogenized.
T1 sequence (P61169 whole entry): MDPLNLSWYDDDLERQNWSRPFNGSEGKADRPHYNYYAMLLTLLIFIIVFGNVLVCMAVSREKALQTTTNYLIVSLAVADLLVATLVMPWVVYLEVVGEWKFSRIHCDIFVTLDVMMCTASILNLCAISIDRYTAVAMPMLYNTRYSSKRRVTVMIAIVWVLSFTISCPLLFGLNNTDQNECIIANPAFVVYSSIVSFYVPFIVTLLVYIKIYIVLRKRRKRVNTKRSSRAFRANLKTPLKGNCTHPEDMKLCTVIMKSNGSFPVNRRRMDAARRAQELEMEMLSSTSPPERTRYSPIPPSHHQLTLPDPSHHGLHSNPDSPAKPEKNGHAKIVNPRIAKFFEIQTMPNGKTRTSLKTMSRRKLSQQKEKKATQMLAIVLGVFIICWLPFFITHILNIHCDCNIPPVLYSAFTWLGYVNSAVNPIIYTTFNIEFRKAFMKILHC
A further experiment concerns the target T2, 5-HT1a (Homo sapiens, UniProt P08908).
T2 sequence (P08908 1-422): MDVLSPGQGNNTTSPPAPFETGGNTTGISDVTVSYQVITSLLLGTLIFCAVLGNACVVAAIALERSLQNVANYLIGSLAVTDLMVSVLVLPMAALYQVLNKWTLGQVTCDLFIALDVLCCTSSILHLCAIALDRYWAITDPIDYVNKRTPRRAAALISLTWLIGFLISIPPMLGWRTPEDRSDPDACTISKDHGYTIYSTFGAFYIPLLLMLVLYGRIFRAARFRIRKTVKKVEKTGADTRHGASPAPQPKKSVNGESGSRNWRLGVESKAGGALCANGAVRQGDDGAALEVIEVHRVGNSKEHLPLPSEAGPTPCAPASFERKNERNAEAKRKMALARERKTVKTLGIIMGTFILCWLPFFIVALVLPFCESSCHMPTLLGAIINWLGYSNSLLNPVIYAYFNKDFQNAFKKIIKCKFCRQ
Kind of experiment: 5-HT1a IC50. The format is binding.

In experiment [2] the target is T1, D2. Kind of experiment: Affinity for the dopamine D-2 receptor: 3H-spiroperidol (Spiper.) binding, homogenized limbic brain tissue. More on the design: homogenized limbic brain tissue is incubated with; from tissue; host or cells: limbic brain tissue, homogenized.

On to `O=C1CCC(=O)N1CCCNCC1CCc2ccc(O)cc2O1` (centres unmarked) [Example 3d, 1-{3-[(7-Hydroxy-chroman-2-ylmethyl)-amino]-propyl}-pyrrolidine-2,5-dione], for which the IC50 with α1 was 277 nM; on D2 [1] (3H-quinpirole, rat striatal brain tissue), 9.29 nM; against 5-HT1a, 303 nM; on D2 [2], 2180 nM. Further, at D2 [1] (not defined in print, values match D2 Spiper. IC50 / D2 Quin. IC50), the Ratio is 234.
